Format in all cases: functional
In test [1] the test system is Candida albicans. The test can be described thus: Antimicrobial activity against Candida albicans ATCC 64124 assessed as reduction in microbial growth by CLSI protocol based micro-broth dilution method.
Test [2] concerns Aspergillus flavus. In words: Antimicrobial activity against Aspergillus flavus assessed as zone of inhibition.
The subject of test [3] is Aspergillus niger. The test can be described thus: Antifungal activity against Aspergillus niger assessed as zone of inhibition by disc diffusion method. For orientation: A growth-free zone around the sample is the usual read-out of agar diffusion tests.
The subject of test [4] is Cryptococcus neoformans. In words: Antifungal activity against Cryptococcus neoformans assessed as reduction in fungal growth incubated for 24 hrs by broth microdilution method. On the technique in general: Dilution methods test growth across graded concentrations, often in twofold steps.
In test [5] the test system is Syncephalastrum racemosum. The test can be described thus: Antifungal activity against Syncephalastrum racemosum assessed as zone of inhibition.
Test [6] relates to Aspergillus fumigatus. In words: Antifungal activity against Aspergillus fumigatus assessed as zone of inhibition.
Test [7] relates to Candida albicans. The test can be described thus: Antifungal activity against azole-resistant Candida albicans ATCC 18804 assessed as fungal growth inhibition incubated for 24 hrs by CLSI protocol based broth microdilution method.
Test [8] has as its system Candida albicans. The test can be described thus: Antifungal activity against azole-resistant Candida albicans ATCC 10231 assessed as fungal growth inhibition incubated for 24 hrs by CLSI protocol based broth microdilution method.
For test [9], the system named is Candida albicans. In words: Antifungal activity against azole-resistant Candida albicans ATCC 18804 assessed as reduction in fungal growth by XTT assay. In general terms: Tetrazolium dyes change colour on reduction, which living cells bring about.
The subject of test [10] is Candida albicans. In words: Antifungal activity against azole-resistant Candida albicans ATCC 10231 assessed as reduction in fungal growth by XTT assay.
Test [11] relates to Aspergillus fumigatus. The test can be described thus: Antifungal activity against Aspergillus fumigatus assessed as reduction in fungal growth incubated for 72 hrs by agar well diffusion method.
Test [12] deals with Candida albicans. The test can be described thus: Antifungal activity against Candida albicans assessed as reduction in fungal growth incubated for 72 hrs by agar well diffusion method.
In test [13] the test system is Candida albicans. The test can be described thus: Antifungal activity against Candida albicans.
In test [14] the test system is Aspergillus fumigatus. The test can be described thus: Antifungal activity against Aspergillus fumigatus.
In test [15] the test system is Candida albicans. The test can be described thus: Antifungal activity against Candida albicans assessed as reduction in fungal growth incubated for 18 hrs by broth microdilution method.
The subject of test [16] is Aspergillus fumigatus. In words: Antifungal activity against Aspergillus fumigatus assessed as reduction in fungal growth incubated for 20 to 24 hrs by CLSI based micro-dilution analysis. As to conditions: time 20-24 hrs.
Test [17] has as its system Sclerotinia sclerotiorum. In words: Fungicidal activity against Sclerotinia sclerotiorum assessed as fungal inhibitory rate at 200 ug/ml relative to control.
The subject of test [18] is Fusarium graminearum. The test can be described thus: Fungicidal activity against Gibberella zeae assessed as fungal inhibitory rate at 200 ug/ml relative to control.
Test [19] relates to Botryosphaeria dothidea. In words: Fungicidal activity against Botryosphaeria dothidea assessed as fungal inhibitory rate at 200 ug/ml relative to control.
Test [20] has as its system Candida albicans. In words: Antifungal activity against Candida albicans assessed as diameter of inhibition zone.
Test [21] concerns Rhizopus microsporus. In words: Antifungal activity against Rhizopus microsporus assessed as diameter of inhibition zone.
Test [22] relates to Candida albicans. In words: Antifungal activity against Candida albicans assessed as fungal growth inhibition.
Test [23] relates to Candida albicans. The test can be described thus: Antifungal activity against Candida albicans assessed as zone of inhibition by disc diffusion method.
The subject of test [24] is Aspergillus flavus. In words: Antifungal activity against Aspergillus flavus assessed as zone of inhibition by disc diffusion method.
The subject of test [25] is Candida albicans. The test can be described thus: Antifungal activity against Candida albicans assessed as zone of inhibition.
The test system of test [26] is Aspergillus niger. The test can be described thus: Antifungal activity against Aspergillus niger assessed as zone of inhibition.
Test [27] deals with Candida albicans. The test can be described thus: Antifungal activity against Candida albicans assessed as zone of inhibition by serial dilution and disc diffusion method.
Test [28] concerns Saccharomyces cerevisiae. The test can be described thus: Antimicrobial activity against Saccharomyces cerevisiae assessed as zone of inhibition.
The subject of test [29] is Saccharomyces cerevisiae. The test can be described thus: Antimicrobial activity against Saccharomyces cerevisiae assessed as zone of inhibition by disc diffusion method.
Test [30] deals with Aspergillus fumigatus. The test can be described thus: Antifungal activity against Aspergillus fumigatus assessed as reduction in fungal growth.
Test [31] has as its system Candida albicans. In words: Antifungal activity against Candida albicans SC5314 assessed as reduction in fungal growth incubated for 72 hrs by broth microdilution method.
The subject of test [32] is Candida albicans. In words: Antifungal activity against Candida albicans ATCC 10231.
The subject of test [33] is Pichia kudriavzevii. The test can be described thus: Antifungal activity against Candida krusei ATCC 6258.
Test [34] concerns Candida parapsilosis. The test can be described thus: Antifungal activity against Candida parapsilosis ATCC 22019. As to conditions: Lodderomyces parapsilosis.
Test [35] deals with Nakaseomyces glabratus. In words: Antifungal activity against Candida glabrata ATCC 90030.
The test system of test [36] is Candida albicans. The test can be described thus: Antifungal activity against Candida albicans RCMB 005036 assessed as diameter of zone inhibition.
Test [37] has as its system Aspergillus fumigatus. In words: Antifungal activity against Aspergillus fumigatus RCMB 002568 assessed as diameter of zone inhibition.
In test [38] the test system is Aspergillus niger. In words: Antifungal activity against Aspergillus niger MTCC 282 assessed as reduction in microbial growth after 24 hrs by broth micro-dilution method.
Test [39] relates to Aspergillus flavus. The test can be described thus: Antifungal activity against Aspergillus flavus ATCC 20046 assessed as reduction in fungal growth incubated ofr 48 hrs by CLSI micro-dilution method.
Test [40] relates to Fusarium solani. The test can be described thus: Antifungal activity against Fusarium solani ATCC 20327 assessed as reduction in fungal growth incubated ofr 48 hrs by CLSI micro-dilution method.
Test [41] relates to Penicillium chrysogenum. In words: Antifungal activity against Penicillium chrysogenum ATCC 20044 assessed as reduction in fungal growth incubated ofr 48 hrs by CLSI micro-dilution method.
The test system of test [42] is Penicillium frequentans. In words: Antifungal activity against Penicillium frequentans ATCC 10110 assessed as reduction in fungal growth incubated ofr 48 hrs by CLSI micro-dilution method.
Test [43] has as its system Alternaria alternata. The test can be described thus: Antifungal activity against Alternaria alternata ATCC 8741 assessed as reduction in fungal growth incubated ofr 48 hrs by CLSI micro-dilution method.

Structures are written as SMILES. Converted amounts (≈) assume the structure as drawn.

What is called MIC is the least concentration at which growth counts as inhibited. For `C[C@@H]1[C@H](O)[C@@H](C)/C=C/C=C/C=C/C=C/C=C/C=C/C=C/[C@H](O[C@@H]2O[C@H](C)[C@@H](O)[C@H](N)[C@@H]2O)C[C@@H]2O[C@](O)(C[C@@H](O)C[C@@H](O)[C@H](O)CC[C@@H](O)C[C@@H](O)CC(=O)O[C@H]1C)C[C@H](O)[C@H]2C(=O)O` [AMPHOTERICIN B], the MIC in test [1] worked out at 1 µg/mL; in [4], 0.39 µg/mL (≈ 0.422 µM); in test [7], 0.2 µg/mL (≈ 0.216 µM); in test [8], 1.9 µg/mL (≈ 2.06 µM); in test [9], 0.2 µg/mL (≈ 0.216 µM); in [10], 1.9 µg/mL (≈ 2.06 µM). The MIC turned out to be 1.95 µg/mL (≈ 2.11 µM) in test [11] and 3.9 µg/mL (≈ 4.22 µM) in test [12]. Moreover, the “inhibition zone (IZ)” value in [2] amounted to 15 mm; in test [3], 17 mm; in test [5], 20 mm; in test [6], 24 mm.
Consider `Cc1cc(Nc2ccc(=O)n(-c3ccccc3)n2)no1`, for which the MIC in [13] and in test [14] was 18 µg/mL (≈ 67.1 µM) throughout.
For the compound `Cc1cc(=O)n2nc(C(=O)NN)nc2[nH]1`, the minimum inhibitory concentration (MIC) in [15] came to 4 µg/mL (≈ 19.2 µM).
Turning to `OC[C@H]1O[C@@H](Sc2nnc(Cc3ccc4ccc5cccc6ccc3c4c56)c3ccccc23)[C@H](O)[C@H]1O`, in test [16], the MIC stood at 17 µg/mL (≈ 33.4 µM).
A word on the inhibition: it is the drop in the measured response relative to a control, in per cent. Regarding `Cc1ncc(NC(=O)c2cc(Cl)nn2-c2ncccc2Cl)c(-c2noc(C)n2)n1`, the inhibition at 200 µg/mL in [17] was found to be 54.1%; in test [18], 54.9%; in test [19], 85.9%.
Turning to `O=C1CCC(=O)N(CC(=O)n2c3ccccc3c3ccccc32)N1`, the entries for the “inhibition zone (IZ)” value in test [20] and in test [21] were 18 mm and 14 mm, respectively.
Turning to `COC(=O)COc1cccc(OCC(=O)OC)c1C(=O)C[n+]1cc2ccccc2cn1.[Br-]`, the minimal inhibitory concentration (MIC) in test [22] was 1.25 µg/mL.
By MIC50 is commonly meant an inhibitory concentration at the 50% level, which refers to growth in some studies and to a panel of isolates in others. A low value points to higher susceptibility. Consider `OC(Cn1cncn1)(Cn1cncn1)c1ccc(F)cc1F` [FLUCONAZOLE], for which the minimum inhibitory concentration (MIC) is greater than 64 µg/mL in [1]; 0.125 µg/mL (≈ 0.408 µM) in [15]; 8 µg/mL (≈ 26.1 µM) in test [4]; less than 212 µg/mL in [30]; no more than 0.25 µg/mL in test [31]; 0.78 µg/mL (≈ 2.55 µM) in [33]. For the same compound, the MIC in test [34] and in test [35] was 0.78 µg/mL (≈ 2.55 µM) each time. The “inhibition zone (IZ)” value came to 2.1 mm in test [23]; 2.9 mm in test [24]; 22 mm in [25]; 20 mm in test [26]; 24 mm in test [27]; 11 mm in test [28]. The “inhibition zone (IZ)” value in test [29] was found to be 13 mm; in test [20] it was 10 mm; in test [21], 12 mm. This compound also came in with an MIC50 in test [32] of 0.78 µg/mL (≈ 2.55 µM).
Take `Cc1nnc2c(C#N)c(N)n(-c3ccc(N)cc3)nc1-2`: the minimum inhibitory concentration (MIC) was 0.9 µg/mL (≈ 3.39 µM) in [11] and 3.9 µg/mL (≈ 14.7 µM) in [12].
On to `COc1ccc(NC(=O)c2nn(-c3ccccc3)c(=N)c(C#N)c2C)cc1`, for which the results for the “inhibition zone (IZ)” value in [36] and in test [37] were 26 mm and 20 mm, respectively.
In the case of `Clc1cnc(C2=Nc3ccccc3SC(c3cccs3)C2)cn1` (stereo not given), the minimum inhibitory concentration (MIC) in [38] is 44 µM.
Regarding `Cc1ccc(-c2ccc(=O)n(CC3=C(Cn4nc(-c5ccc(C)cc5)ccc4=O)[C@]4(C)CCCC(C)(C)C4=CC3=O)n2)cc1`, the minimum inhibitory concentration (MIC) in test [39], in test [40], in test [41], in test [42] and in test [43] was 5 µg/mL (≈ 8.52 µM) throughout.

For the origin of these results see ChEMBL document CHEMBL6103565, “Current strategies in design and synthesis of antifungals hybrid and chimeric diazine derivatives” (Bioorg Med Chem, 2025).
